Reference: ChEMBL document CHEMBL1201862, “PubChem BioAssay data set” (2004)
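Compound exposure: 48 hours, 5 concentrations, 96-well plates. GI50 = concentration required for 50% inhibition of growth.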 Active and inactive are the calls of the source. No stated cut-off is given here; in the data, active = GI50 up to about 1.1 µM and inactive = higher.

Key:
Assay in all cases: NCI tumour cell line growth inhibition, 48 h
SF-268 = tested on: SF-268
MDA-N = tested on: MDA-N
SW-620 = tested on: SW-620
SN12C = tested on: SN12C
SK-MEL-2 = tested on: SK-MEL-2
A498 = tested on: A498
COLO 205 = tested on: COLO 205
M14 = tested on: M14
OVCAR-3 = tested on: OVCAR-3
MDA-MB-231 = tested on: MDA-MB-231
MDA-MB-435 = tested on: MDA-MB-435
ACHN = tested on: ACHN
PC-3 = tested on: PC-3
OVCAR-5 = tested on: OVCAR-5
MCF7 = tested on: MCF7
HCT-116 = tested on: HCT-116
LOX IMVI = tested on: LOX IMVI
HOP-62 = tested on: HOP-62
A549 = tested on: A549
DU-145 = tested on: DU-145
CCRF-CEM = tested on: CCRF-CEM
HCT-15 = tested on: HCT-15
SF-295 = tested on: SF-295
UACC-62 = tested on: UACC-62
U-251 = tested on: U-251
HT-29 = tested on: HT-29
SNB-19 = tested on: SNB-19
SK-OV-3 = tested on: SK-OV-3
K562 = tested on: K562
NCI-H226 = tested on: NCI-H226
UACC-257 = tested on: UACC-257
T47D = tested on: T47D
NCI-H460 = tested on: NCI-H460
OVCAR-8 = tested on: OVCAR-8
MOLT-4 = tested on: MOLT-4
SR = tested on: SR
IGROV-1 = tested on: IGROV-1
Hs-578T = tested on: Hs-578T
UO-31 = tested on: UO-31
SK-MEL-5 = tested on: SK-MEL-5
NCI-H522 = tested on: NCI-H522
NCI/ADR-RES = tested on: NCI/ADR-RES
CAKI-1 = tested on: CAKI-1
KM12 = tested on: KM12
SF-539 = tested on: SF-539
786-0 = tested on: 786-0
HL-60 = tested on: HL-60
NCI-H23 = tested on: NCI-H23
RPMI-8226 = tested on: RPMI-8226
SNB-75 = tested on: SNB-75
OVCAR-4 = tested on: OVCAR-4
HOP-92 = tested on: HOP-92
SK-MEL-28 = tested on: SK-MEL-28
HCC 2998 = tested on: HCC 2998
EKVX = tested on: EKVX
RXF 393 = tested on: RXF 393
TK-10 = tested on: TK-10

CC(=O)OC1C(Oc2c(C)cc3c(c2O)[C@@H](C)CC[C@@H]3[C@@H](C)CCC=C(C)C)OCC(O)C1O (stereo partly specified)
GI50 (SF-268): 18.2 µM (inactive)
GI50 (MDA-N): 21 µM (inactive)
GI50 (SW-620): 18.7 µM (inactive)
GI50 (SN12C): 17.5 µM (inactive)
GI50 (SK-MEL-2): 25.3 µM (inactive)
GI50 (A498): 20.3 µM (inactive)
GI50 (COLO 205): 16.6 µM (inactive)
GI50 (M14): 16.9 µM (inactive)
GI50 (OVCAR-3): 15.7 µM (inactive)
GI50 (MDA-MB-231): 19.8 µM (inactive)
GI50 (MDA-MB-435): 14.6 µM (inactive)
GI50 (ACHN): 20.2 µM (inactive)
GI50 (PC-3): 20.3 µM (inactive)
GI50 (OVCAR-5): 16.9 µM (inactive)
GI50 (MCF7): 20.9 µM (inactive)
GI50 (HCT-116): 18.2 µM (inactive)
GI50 (LOX IMVI): 18.2 µM (inactive)
GI50 (HOP-62): 17.3 µM (inactive)
GI50 (A549): 14.8 µM (inactive)
GI50 (DU-145): 16.2 µM (inactive)
GI50 (CCRF-CEM): 22.8 µM (inactive)
GI50 (HCT-15): 17.5 µM
GI50 (SF-295): 19.4 µM (inactive)
GI50 (UACC-62): 18.3 µM (inactive)
GI50 (U-251): 17.3 µM (inactive)
GI50 (HT-29): 14.4 µM (inactive)
GI50 (SNB-19): 19.6 µM (inactive)
GI50 (SK-OV-3): 19.3 µM (inactive)
GI50 (K562): 13.5 µM (inactive)
GI50 (NCI-H226): 17.6 µM (inactive)
GI50 (UACC-257): 18.4 µM (inactive)
GI50 (T47D): 22.4 µM (inactive)
GI50 (NCI-H460): 16.9 µM (inactive)
GI50 (OVCAR-8): 21.9 µM (inactive)
GI50 (MOLT-4): 22.6 µM (inactive)
GI50 (SR): 22.9 µM (inactive)
GI50 (IGROV-1): 19.1 µM (inactive)
GI50 (Hs-578T): 21.5 µM (inactive)
GI50 (UO-31): 17.3 µM (inactive)
GI50 (SK-MEL-5): 18.1 µM (inactive)
GI50 (NCI-H522): 21.2 µM (inactive)
GI50 (NCI/ADR-RES): 21.1 µM (inactive)
GI50 (CAKI-1): 19.5 µM (inactive)
GI50 (KM12): 15.9 µM (inactive)
GI50 (SF-539): 18.5 µM (inactive)
GI50 (786-0): 18.4 µM (inactive)
GI50 (HL-60): 21.4 µM (inactive)
GI50 (NCI-H23): 17.9 µM (inactive)

C[C@H](N[C@H]1CCC[C@]1(O)C#Cc1ccc2c(c1)OCO2)c1ccccc1
GI50 (SF-268): > 25 µM (inactive)
GI50 (RPMI-8226): 8.89 µM (inactive)
GI50 (SNB-75): 15.4 µM (inactive)
GI50 (OVCAR-4): 14 µM (inactive)
GI50 (SK-MEL-2): 8.61 µM (inactive)
GI50 (HOP-92): 11.9 µM (inactive)
GI50 (A498): > 25 µM (inactive)
GI50 (COLO 205): 9.25 µM (inactive)
GI50 (M14): 14.2 µM (inactive)
GI50 (MDA-MB-231): 22.1 µM (inactive)
GI50 (SK-MEL-28): 15.5 µM (inactive)
GI50 (MDA-MB-435): > 25 µM (inactive)
GI50 (ACHN): > 25 µM (inactive)
GI50 (PC-3): 13.6 µM (inactive)
GI50 (OVCAR-5): > 25 µM (inactive)
GI50 (MCF7): > 25 µM (inactive)
GI50 (LOX IMVI): > 25 µM (inactive)
GI50 (HOP-62): > 25 µM (inactive)
GI50 (A549): > 25 µM (inactive)
GI50 (DU-145): > 25 µM (inactive)
GI50 (CCRF-CEM): > 25 µM (inactive)
GI50 (HCT-15): > 25 µM
GI50 (SF-295): > 25 µM (inactive)
GI50 (UACC-62): > 25 µM (inactive)
GI50 (U-251): 19.7 µM (inactive)
GI50 (HT-29): > 25 µM (inactive)
GI50 (SNB-19): > 25 µM (inactive)
GI50 (SK-OV-3): > 25 µM (inactive)
GI50 (K562): 11.7 µM (inactive)
GI50 (HCC 2998): 10.7 µM (inactive)
GI50 (NCI-H226): > 25 µM (inactive)
GI50 (UACC-257): > 25 µM (inactive)
GI50 (EKVX): > 25 µM (inactive)
GI50 (T47D): 21.8 µM (inactive)
GI50 (NCI-H460): 21.4 µM (inactive)
GI50 (OVCAR-8): > 25 µM (inactive)
GI50 (MOLT-4): 10.9 µM (inactive)
GI50 (SR): 20.7 µM (inactive)
GI50 (IGROV-1): 14.3 µM (inactive)
GI50 (Hs-578T): > 25 µM (inactive)
GI50 (UO-31): > 25 µM (inactive)
GI50 (SK-MEL-5): 22.6 µM (inactive)
GI50 (NCI/ADR-RES): > 25 µM (inactive)
GI50 (CAKI-1): > 25 µM (inactive)
GI50 (KM12): > 25 µM (inactive)
GI50 (HL-60): > 25 µM (inactive)
GI50 (NCI-H23): > 25 µM (inactive)
GI50 (RXF 393): > 25 µM (inactive)
GI50 (TK-10): > 25 µM (inactive)

O=c1c2ccccc2nc2n1CCc1c-2[nH]c2cc3c(cc12)OCO3
GI50 (SF-268): 5.41 µM (inactive)
GI50 (RPMI-8226): > 25 µM (inactive)
GI50 (MDA-N): 17.6 µM (inactive)
GI50 (SW-620): > 25 µM (inactive)
GI50 (SNB-75): 6.61 µM (inactive)
GI50 (SN12C): > 25 µM (inactive)
GI50 (COLO 205): > 25 µM (inactive)
GI50 (M14): > 25 µM (inactive)
GI50 (MDA-MB-231): 9.71 µM (inactive)
GI50 (SK-MEL-28): > 25 µM (inactive)
GI50 (MDA-MB-435): 13.6 µM (inactive)
GI50 (ACHN): 3.98 µM (inactive)
GI50 (PC-3): > 25 µM (inactive)
GI50 (OVCAR-5): > 25 µM (inactive)
GI50 (MCF7): > 25 µM (inactive)
GI50 (HCT-116): 3.32 µM (inactive)
GI50 (HOP-62): 9.42 µM (inactive)
GI50 (HCT-15): 8.65 µM
GI50 (SF-295): 5.55 µM (inactive)
GI50 (U-251): 7.28 µM (inactive)
GI50 (SNB-19): 5.11 µM (inactive)
GI50 (SK-OV-3): 6.95 µM (inactive)
GI50 (K562): > 25 µM (inactive)
GI50 (HCC 2998): > 25 µM (inactive)
GI50 (UACC-257): > 25 µM (inactive)
GI50 (EKVX): > 25 µM (inactive)
GI50 (T47D): > 25 µM (inactive)
GI50 (OVCAR-8): 5.74 µM (inactive)
GI50 (MOLT-4): > 25 µM (inactive)
GI50 (SR): > 25 µM (inactive)
GI50 (IGROV-1): > 25 µM (inactive)
GI50 (UO-31): > 25 µM (inactive)
GI50 (SK-MEL-5): 13.7 µM (inactive)
GI50 (NCI-H522): 5.4 µM (inactive)
GI50 (NCI/ADR-RES): > 25 µM (inactive)
GI50 (KM12): 15.7 µM (inactive)
GI50 (SF-539): 5.77 µM (inactive)
GI50 (HL-60): > 25 µM (inactive)
GI50 (TK-10): > 25 µM (inactive)
